Source: patent US6376518B1, “Acyl derivatives of 4-demethylpenclomedine, use thereof and preparation thereof” (Southern Research Institute, priority 1999, dated 2002)
Read-outs that look alike come from different tables or passages of the source.

Columns and labels:
[1] = Anti-cancer activity of precursor compounds
human MX-1 mammary tumor [2] = assay: In vivo antitumor activity vs s.c.-implanted human MX-1 mammary tumor xenograft in athymic mice; details: sc MX-1
human MX-1 mammary tumor [3] = assay: In vivo antitumor activity vs i.c.-implanted human MX-1 mammary tumor xenograft in athymic mice; details: ic MX-1, Days 1-5
[4] = tested on: ZR-75-1 human mammary tumor; assay: In vivo antitumor activity vs sc ZR-75-1 xenograft; details: for Tumor-Free-Surv/Total: sc ZR-75-1
MCF7 human mammary tumor = assay: In vivo antitumor activity vs sc MCF7 xenograft
[5] = tested on: UISO-BCA-1 human mammary tumor; assay: In vivo antitumor activity vs sc UISO-BCA-1 xenograft; details: IP 90 mg/kg/dose, Days 16-20
HT29 human colon tumor = assay: In vivo antitumor activity vs sc HT29 xenograft
[6] = tested on: NCI-H82 small cell lung tumor; assay: In vivo antitumor activity vs sc NCI-H82 xenograft; parameters: species or system human
[7] = tested on: NCI-H460 nonsmall cell lung tumor; assay: In vivo antitumor activity vs sc NCI-H460 xenograft; parameters: species or system human; details: IP 90 mg/kg/dose, Days 6-10
U251 human CNS tumor = assay: In vivo antitumor activity vs sc U251 xenograft
SF-295 CNS tumor = assay: In vivo antitumor activity vs sc SF-295 xenograft; parameters: species or system human; details: IP 90 mg/kg/dose, Days 9-13
CAKI-1 human renal tumor = assay: In vivo antitumor activity vs sc CAKI-1 xenograft
OVCAR-5 ovarian tumor = assay: In vivo antitumor activity vs sc OVCAR-5 xenograft; parameters: species or system human; details: IP 90 mg/kg/dose, Days 12-16
SK-MEL-28 melanoma = assay: In vivo antitumor activity vs sc SK-MEL-28 xenograft; parameters: species or system human; details: IP 90 mg/kg/dose, Days 8-12
P388/CPA leukemia = assay: Antitumor activity against IP-implanted P388/CPA leukemia in mice; assay type: in vivo, murine; details: for 50-DAY SURV/TOTAL / % ILS / APPROX. NET LOG10 CHANGE IN TUMOR BURDEN AT END OF Rx / MEDIAN DAY OF DEATH: P388/CPA, Q1D × 5 (1); for MEDIAN DAY OF DEATH: dying mice only
P388/L-PAM leukemia = details: for MEDIAN DAY OF DEATH: dying mice only
P388/BCNU leukemia = assay: Antitumor activity against IP-implanted P388/BCNU leukemia in mice; details: for MEDIAN DAY OF DEATH: dying mice only
[8] = sc MCF7, IP 60 mg/kg/dose, Days 14-18
[9] = sc HT29, IP 90 mg/kg/dose, Days 14-18
[10] = sc NCI-H82, IP 60 mg/kg/dose, Days 13-17
[11] = sc CAKI-1, IP 90 mg/kg/dose, Days 19-23
[12] = highest nontoxic doses evaluated, versus DM-PEN
[13] = highest nontoxic doses evaluated, versus PEN
[14] = P388/0, IP 60.0 mg/kg/dose, Q1D × 5 (1)
[15] = P388/0, IP 90.0 mg/kg/dose, Q1D × 5 (1)
[16] = P388/0, IP 135.0 mg/kg/dose, Q1D × 5 (1)
[17] = P388/L-PAM, IP 60.0 mg/kg/dose, Q1D × 5 (1)
[18] = P388/L-PAM, IP 90.0 mg/kg/dose, Q1D × 5 (1)
[19] = P388/L-PAM, IP 135.0 mg/kg/dose, Q1D × 5 (1)
[20] = P388/BCNU, IP 60.0 mg/kg/dose, Q1D × 5 (1)
[21] = P388/BCNU, IP 90.0 mg/kg/dose, Q1D × 5 (1)
[22] = P388/BCNU, IP 135.0 mg/kg/dose, Q1D × 5 (1)

CCOc1nc(C(Cl)(Cl)Cl)c(Cl)c(OCC)c1Cl [3,5-dichloro-4,6-diethoxy-2-(trichloromethyl)pyridine]
anti-cancer activity (in words) [1]: active anti-cancer activity

CCOc1c(Cl)c(OC)nc(C(Cl)(Cl)Cl)c1Cl [3,5-dichloro-4-ethoxy-6 methoxy-2-(trichloromethyl) pyridine]
anti-cancer activity (in words) [1]: active anti-cancer activity

COc1nc(C(Cl)(Cl)Cl)c(Cl)c(OC(C)=O)c1Cl [DM-A-PEN]
Tumor-Free-Surv/Total (human MX-1 mammary tumor [2]; IP 60 mg/kg/dose (LD20), Days 15-19): 3/5 | Tumor-Free-Surv/Total (human MX-1 mammary tumor [2]; IP 60 mg/kg/dose, Days 14-18): 4/5 | Dose (mg/kg) with observed lethality level (human MX-1 mammary tumor [2]; IP 60 mg/kg/dose, Days 15-19): 60 (LD20) | T-C (human MX-1 mammary tumor [2]; IP 90 mg/kg/dose, Days 12-16): >41.0 days | Tumor-Free-Surv/Total (human MX-1 mammary tumor [2]; IP 90 mg/kg/dose, Days 12-16): 5/5 | Tumor-Free-Surv/Total (human MX-1 mammary tumor [2]; oral (gavage) 135 mg/kg/dose, Days 13-17): 5/5 | Median % ILS (dying mice only) (human MX-1 mammary tumor [3]; IP 60 mg/kg/dose): +60% | Median % ILS (dying mice only) (human MX-1 mammary tumor [3]; oral (gavage) 135 mg/kg/dose): +88% | activity (in words) ([4]; s.c.-implanted ZR-75-1 human mammary tumor): moderate to modest activity | Tumor-Free-Surv/Total ([4]; IP 60 mg/kg/dose, Days 10-14): 0/5 | Tumor-Free-Surv/Total ([4]; IP 90 mg/kg/dose, Days 8-12): 0/5 | activity (in words) (MCF7 human mammary tumor; s.c.-implanted MCF7 human mammary tumor): moderate to modest activity | T-C (MCF7 human mammary tumor; [8]): 7.1 days | Tumor-Free-Surv/Total (MCF7 human mammary tumor; [8]): 0/5 | T-C [5]: -2.4 days | Tumor-Free-Surv/Total [5]: 0/5 | activity (in words) (HT29 human colon tumor; s.c.-implanted HT29 human colon tumor): moderate to modest activity | T-C (HT29 human colon tumor; [9]): 5.8 days | Tumor-Free-Surv/Total (HT29 human colon tumor; [9]): 0/5 | activity (in words) ([6]; s.c.-implanted NCI-H82 small cell lung tumor): moderate to modest activity | T-C [6, 10]: 7.2 days | Tumor-Free-Surv/Total [6, 10]: 0/5 | T-C [7]: -0.6 days | Tumor-Free-Surv/Total [7]: 0/5 | activity (in words) (U251 human CNS tumor; s.c.-implanted U251 human CNS tumor): moderate to modest activity | Tumor-Free-Surv/Total (U251 human CNS tumor; sc U251, IP 90 mg/kg/dose, Days 19-23): 0/5 | T-C (SF-295 CNS tumor): 0.7 days | Tumor-Free-Surv/Total (SF-295 CNS tumor): 0/5 | activity (in words) (CAKI-1 human renal tumor; s.c.-implanted CAKI-1 human renal tumor): moderate to modest activity | T-C (CAKI-1 human renal tumor; [11]): 8.4 days | Tumor-Free-Surv/Total (CAKI-1 human renal tumor; [11]): 0/5 | T-C (OVCAR-5 ovarian tumor): 4.0 days | Tumor-Free-Surv/Total (OVCAR-5 ovarian tumor): 0/5 | T-C (SK-MEL-28 melanoma): 0.7 days | Tumor-Free-Surv/Total (SK-MEL-28 melanoma): 0/5 | 50-DAY SURV/TOTAL (P388/CPA leukemia; IP 60.0 mg/kg/dose): 0/6 | % ILS (P388/CPA leukemia; IP 60.0 mg/kg/dose): +54% | APPROX. NET LOG10 CHANGE IN TUMOR BURDEN AT END OF Rx (P388/CPA leukemia; IP 60.0 mg/kg/dose): −1.1 | MEDIAN DAY OF DEATH (P388/CPA leukemia; IP 60.0 mg/kg/dose): 17.0 | 50-DAY SURV/TOTAL (P388/CPA leukemia; IP 90.0 mg/kg/dose): 0/6 | % ILS (P388/CPA leukemia; IP 90.0 mg/kg/dose): +86% | APPROX. NET LOG10 CHANGE IN TUMOR BURDEN AT END OF Rx (P388/CPA leukemia; IP 90.0 mg/kg/dose): −3.1 | 50-DAY SURV/TOTAL (P388/CPA leukemia; IP 135.0 mg/kg/dose): 0/6 | APPROX. NET LOG10 CHANGE IN TUMOR BURDEN AT END OF Rx (P388/CPA leukemia; IP 135.0 mg/kg/dose): −5.7 | MEDIAN DAY OF DEATH (P388/CPA leukemia; IP 135.0 mg/kg/dose): 25.0 | more active than DM-PEN against P388/CPA (difference in log cell kill) (P388/CPA leukemia; [12]): 4.6 log cell kill | more active than PEN against P388/CPA (difference in log cell kill) (P388/CPA leukemia; [13]): 7.4 log cell kill | 50-DAY SURV/TOTAL (P388/0 leukemia; [14]): 0/6 | % ILS (P388/0 leukemia; [14]): +72% | APPROX. NET LOG10 CHANGE IN TUMOR BURDEN AT END OF Rx (P388/0 leukemia; [14]): −3.1 | MEDIAN DAY OF DEATH (P388/0 leukemia; P388/0, IP 60.0 mg/kg/dose, Q1D × 5 (1), dying mice only): 19.0 | 50-DAY SURV/TOTAL (P388/0 leukemia; [15]): 0/6 | % ILS (P388/0 leukemia; [15]): +95% | APPROX. NET LOG10 CHANGE IN TUMOR BURDEN AT END OF Rx (P388/0 leukemia; [15]): −5.0 | 50-DAY SURV/TOTAL (P388/0 leukemia; [16]): 0/6 | % ILS (P388/0 leukemia; [16]): +159% | APPROX. NET LOG10 CHANGE IN TUMOR BURDEN AT END OF Rx (P388/0 leukemia; [16]): ~−6.8 | Toxicity / lethality level at the dosage (LD) (P388/0 leukemia; [16]): LD33 | more active than DM-PEN against P388/O (difference in log cell kill) (P388/0 leukemia; [12]): 1.9 log cell kill | more active than PEN against P388/0 (difference in log cell kill) (P388/0 leukemia; [13]): 0.4 log cell kill | 50-DAY SURV/TOTAL (P388/L-PAM leukemia; [17]): 0/6 | % ILS (P388/L-PAM leukemia; [17]): +14% | APPROX. NET LOG10 CHANGE IN TUMOR BURDEN AT END OF Rx (P388/L-PAM leukemia; [17]): +1.2 | MEDIAN DAY OF DEATH (P388/L-PAM leukemia; [17]): 18.0 | 50-DAY SURV/TOTAL (P388/L-PAM leukemia; [18]): 0/6 | % ILS (P388/L-PAM leukemia; [18]): +14% | APPROX. NET LOG10 CHANGE IN TUMOR BURDEN AT END OF Rx (P388/L-PAM leukemia; [18]): +1.2 | MEDIAN DAY OF DEATH (P388/L-PAM leukemia; [18]): 18.0 | 50-DAY SURV/TOTAL (P388/L-PAM leukemia; [19]): 0/6 | % ILS (P388/L-PAM leukemia; [19]): +35% | APPROX. NET LOG10 CHANGE IN TUMOR BURDEN AT END OF Rx (P388/L-PAM leukemia; [19]): −0.8 | Toxicity / lethality level at the dosage (LD) (P388/L-PAM leukemia; [19]): LD17 | MEDIAN DAY OF DEATH (P388/L-PAM leukemia; [19]): 19.0 | more active than PEN or DM-PEN against P388/L-PAM (difference in log cell kill) (P388/L-PAM leukemia; highest nontoxic doses evaluated, versus PEN or DM-PEN): 0.2-0.3 log cell kill | activity in the P388/L-PAM tumor model (in words) (P388/L-PAM leukemia; mouse, in vivo): none of the three showed significant activity | 50-DAY SURV/TOTAL (P388/BCNU leukemia; [20]): 1/6 | % ILS (P388/BCNU leukemia; [20]): +44% | APPROX. NET LOG10 CHANGE IN TUMOR BURDEN AT END OF Rx (P388/BCNU leukemia; [20]): 0 | MEDIAN DAY OF DEATH (P388/BCNU leukemia; [20]): 13.0 | 50-DAY SURV/TOTAL (P388/BCNU leukemia; [21]): 0/6 | % ILS (P388/BCNU leukemia; [21]): +77% | APPROX. NET LOG10 CHANGE IN TUMOR BURDEN AT END OF Rx (P388/BCNU leukemia; [21]): −2.3 | MEDIAN DAY OF DEATH (P388/BCNU leukemia; [21]): 16.0 | 50-DAY SURV/TOTAL (P388/BCNU leukemia; [22]): 0/6 | APPROX. NET LOG10 CHANGE IN TUMOR BURDEN AT END OF Rx (P388/BCNU leukemia; [22]): −4.1 | Toxicity / lethality level at the dosage (LD) (P388/BCNU leukemia; [22]): LD17 | MEDIAN DAY OF DEATH (P388/BCNU leukemia; [22]): 21.0 | more active than DM-PEN against P388/BCNU (difference in log cell kill) (P388/BCNU leukemia; [12]): 1.5 log cell kill | more active than PEN against P388/BCNU (difference in log cell kill) (P388/BCNU leukemia; [13]): 3.5 log cell kill
